Measurements published in ChEMBL document CHEMBL5584244, “Discovery of novel pyrrolo[2,1-c][1,4]benzodiazepine-3,11-dione (PBD) derivatives as selective HDAC6 inhibitors for the efficient treatment of idiopathic pulmonary fibrosis (IPF) in vitro and in vivo” (Eur J Med Chem, 2024).
pIC50: −log10 of the molar value. Active and inactive are the calls of the source. The rule behind the calls is not given here.

Key:
Mus musculus [1] = assay: Anti-pulmonary fibrosis activity in bleomycin-induced C57BL/6 mouse model of pulmonary fibrosis assessed as decrease in disturbance of alveolar structure in lung at 50 to 100 mg/kg, ip for 3 weeks by H and E staining based fluorescence microscopic analysis; format: functional, organism-based; conditions: dose 50-100 mg/kg
[2] = Intrinsic clearance in human liver microsomes at 100 uM incubated upto 60 mins by LC-MS/MS analysis; format: ADME, Microsome; conditions: read-out: CLH
[3] = Intrinsic clearance in human liver at 100 uM incubated upto 60 mins by LC-MS/MS analysis; format: ADME, tissue-based; conditions: read-out: CLH
Histone deacetylase 7 = biological target: T1, Histone deacetylase 7 (Homo sapiens, UniProt Q8WUI4); assay: Inhibition of N-terminal GST-tagged recombinant human HDAC7 (518 to end residues) expressed in baculovirus expression system using Boc-Lys (Tfa)-AMC as substrate incubated for 120 mins by fluorescence analysis
T1 sequence (Q8WUI4 whole entry): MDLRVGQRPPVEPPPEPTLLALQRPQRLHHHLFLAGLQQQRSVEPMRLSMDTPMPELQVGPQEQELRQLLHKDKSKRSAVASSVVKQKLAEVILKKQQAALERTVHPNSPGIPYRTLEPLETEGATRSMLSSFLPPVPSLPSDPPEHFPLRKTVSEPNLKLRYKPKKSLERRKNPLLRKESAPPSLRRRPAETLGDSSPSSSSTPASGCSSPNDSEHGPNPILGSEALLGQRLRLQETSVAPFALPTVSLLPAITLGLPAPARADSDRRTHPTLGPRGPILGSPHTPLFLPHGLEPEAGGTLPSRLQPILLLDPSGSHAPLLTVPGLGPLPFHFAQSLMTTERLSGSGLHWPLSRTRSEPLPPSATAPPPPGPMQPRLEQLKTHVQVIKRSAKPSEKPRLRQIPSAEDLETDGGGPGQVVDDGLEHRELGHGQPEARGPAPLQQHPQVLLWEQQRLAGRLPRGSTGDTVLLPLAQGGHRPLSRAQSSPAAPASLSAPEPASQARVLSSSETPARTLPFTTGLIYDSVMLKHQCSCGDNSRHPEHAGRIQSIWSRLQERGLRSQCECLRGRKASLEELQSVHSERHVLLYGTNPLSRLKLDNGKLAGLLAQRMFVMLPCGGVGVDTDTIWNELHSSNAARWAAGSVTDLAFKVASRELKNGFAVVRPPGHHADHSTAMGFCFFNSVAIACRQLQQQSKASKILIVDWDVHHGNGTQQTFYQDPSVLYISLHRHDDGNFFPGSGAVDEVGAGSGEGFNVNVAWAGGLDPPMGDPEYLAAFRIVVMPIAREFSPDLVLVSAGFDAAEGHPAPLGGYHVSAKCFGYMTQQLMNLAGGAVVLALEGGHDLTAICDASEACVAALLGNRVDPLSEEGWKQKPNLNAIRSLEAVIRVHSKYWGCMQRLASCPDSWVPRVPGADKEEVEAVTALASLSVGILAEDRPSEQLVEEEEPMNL

Mus musculus [4] = assay: Anti-pulmonary fibrosis activity in bleomycin-induced C57BL/6 mouse model of pulmonary fibrosis assessed as decrease in collagen level in lung at 50 to 100 mg/kg, ip for 3 weeks by Masson trichrome staining based microscopic analysis; format: functional, organism-based; conditions: dose 50-100 mg/kg
[5] = biological target: T2, TGF-beta receptor type-1 (Homo sapiens) (UniProt P36897); assay: Inhibition of TGF-beta1-induced TGFbetaR1 protein phosphorylation level in HELF cells incubated for 48 hrs by Western blot analysis; format: cell-based; conditions: dose 2.5-10 µM
T2 sequence (whole entry): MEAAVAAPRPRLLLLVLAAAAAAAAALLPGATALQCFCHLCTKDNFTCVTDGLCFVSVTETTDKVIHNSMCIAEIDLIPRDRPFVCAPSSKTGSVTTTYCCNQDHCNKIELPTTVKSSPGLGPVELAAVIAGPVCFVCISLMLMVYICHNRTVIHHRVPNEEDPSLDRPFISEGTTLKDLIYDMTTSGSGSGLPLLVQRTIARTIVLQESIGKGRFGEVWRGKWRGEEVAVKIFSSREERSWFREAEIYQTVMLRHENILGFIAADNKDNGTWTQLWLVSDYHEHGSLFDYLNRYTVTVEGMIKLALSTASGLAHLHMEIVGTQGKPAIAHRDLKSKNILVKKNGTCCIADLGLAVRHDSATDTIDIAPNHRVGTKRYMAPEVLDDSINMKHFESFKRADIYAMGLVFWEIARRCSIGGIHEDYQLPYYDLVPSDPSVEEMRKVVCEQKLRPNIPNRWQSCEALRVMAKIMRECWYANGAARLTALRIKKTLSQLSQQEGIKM

[6] = Stability of compound in human liver microsomes assessed as remaining parent compound at 100 uM incubated after 60 mins in presence of NADPH by LC-MS/MS analysis; format: ADME, Microsome; conditions: read-out: Stability
HELF = assay: Anti-pulmonary fibrosis activity against TGF-beta1-induced HELF cells assessed as reduction in alpha-SMA protein expression incubated for 48 hrs by Western blot analysis; format: functional, cell-based; conditions: Homo sapiens, dose 2.5-10 µM
Mus musculus [7] = assay: Anti-pulmonary fibrosis activity in bleomycin-induced ip dosed C57BL/6 mouse model of pulmonary fibrosis assessed as inhibition of alpha-SMA protein expression level in lung for 3 weeks by immunohistochemical analysis; format: functional, organism-based; conditions: dose 50-100 mg/kg
Mus musculus [8] = assay: Anti-pulmonary fibrosis activity in bleomycin-induced ip dosed C57BL/6 mouse model of pulmonary fibrosis assessed as inhibition of Smad2 protein phosphorylation level in lung for 3 weeks by immunohistochemical analysis; format: functional, organism-based; conditions: dose 50-100 mg/kg
Mus musculus [9] = assay: Anti-pulmonary fibrosis activity in bleomycin-induced ip dosed C57BL/6 mouse model of pulmonary fibrosis assessed as inhibition of Smad3 protein phosphorylation level in lung at for 3 weeks by immunohistochemical analysis; format: functional, organism-based; conditions: dose 50-100 mg/kg
[10] = Stability of compound in human liver microsomes assessed as remaining parent compound at 100 uM incubated after 60 mins by LC-MS/MS analysis; format: ADME, Microsome; conditions: read-out: Stability
Histone deacetylase 2 = Histone deacetylase 2 (Homo sapiens, UniProt Q92769); assay: Inhibition of recombinant human full length HDAC2 using Boc-Lys (Ac)-AMC as substrate incubated for 120 mins by fluorescence analysis
Sequence of Histone deacetylase 2 (Q92769 whole entry): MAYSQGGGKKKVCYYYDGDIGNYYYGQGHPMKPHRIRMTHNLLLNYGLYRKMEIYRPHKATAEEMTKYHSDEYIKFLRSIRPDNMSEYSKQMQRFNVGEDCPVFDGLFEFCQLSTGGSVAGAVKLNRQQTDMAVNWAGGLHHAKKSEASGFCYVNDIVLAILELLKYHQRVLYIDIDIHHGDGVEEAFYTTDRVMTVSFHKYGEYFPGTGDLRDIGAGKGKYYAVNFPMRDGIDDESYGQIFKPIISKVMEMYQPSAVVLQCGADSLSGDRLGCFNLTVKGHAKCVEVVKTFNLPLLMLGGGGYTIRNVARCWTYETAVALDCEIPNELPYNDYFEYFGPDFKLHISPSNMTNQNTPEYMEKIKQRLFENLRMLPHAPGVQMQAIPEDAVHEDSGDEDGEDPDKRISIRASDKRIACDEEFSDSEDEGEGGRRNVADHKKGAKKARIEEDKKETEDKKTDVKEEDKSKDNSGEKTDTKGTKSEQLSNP

Structure (SMILES): CC(=O)O.O=C(NO)c1ccc(CN2C(=O)[C@@H]3CCCN3Cc3ccccc32)cc1
- Activity (Mus musculus [1]): Active
- microsomal CLint at 100 µM [2]: < 9.6 µL/min/mg
- CLint scaled at 100 µM [3]: < 8.6 mL/min/kg
- pIC50 (Histone deacetylase 7): 8.05
- Activity (Mus musculus [4]): inactive
- inhibition [5]: Dose-Dependent Effect
- remaining at 1 h, 100 µM [6]: 95.7%
- Activity (HELF): Dose-Dependent Effect
- inhibition (Mus musculus [7]): Dose-Dependent Effect
- inhibition (Mus musculus [8]): Dose-Dependent Effect
- inhibition (Mus musculus [9]): Dose-Dependent Effect
- remaining at 1 h, 100 µM [10]: 77.4%
- pIC50 (Histone deacetylase 2): 5.50
